For 27 compounds, inhibition results are on record in patent US8455475B2 (Gruenenthal GmbH, priority 2009, dated 2013).

The target of the experiment is T1, rat B1R (bradykinin receptor 1) (Rattus norvegicus, UniProt P97583).
T1 construct: expressed in transfected cells; host or cells: CHO K1 cells
T1 sequence (P97583 1-337): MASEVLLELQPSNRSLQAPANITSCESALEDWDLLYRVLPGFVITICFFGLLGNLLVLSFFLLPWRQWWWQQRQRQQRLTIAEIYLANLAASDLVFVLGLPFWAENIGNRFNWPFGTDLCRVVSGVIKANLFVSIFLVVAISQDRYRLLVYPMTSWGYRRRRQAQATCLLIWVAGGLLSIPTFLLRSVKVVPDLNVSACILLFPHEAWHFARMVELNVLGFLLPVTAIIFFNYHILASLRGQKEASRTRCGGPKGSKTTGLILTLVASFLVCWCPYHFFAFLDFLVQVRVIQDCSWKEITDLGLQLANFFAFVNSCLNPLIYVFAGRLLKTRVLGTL
Nature of the experiment: FLIPR Ca2+ assay (Fluo-4) on CHO K1 cells stably transfected with the B1R gene of the rat (rB1R cells): % inhibition at 10 μM / IC50, agonist Des-Arg9-bradykinin. The class given is cell-based. The conditions noted are these: CHO-K1, rat B1R. Summed up: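 Loading with Fluo-4 occurs for 60 min at 37 °C, or alternatively in buffer A, before FLIPR measurement. Compounds are applied, incubated 10–20 min, and then the EC80 agonist is added. Antagonism appears as reduced peak Ca2+ signal relative to maximal inhibition.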
For `O=C(NC1CCc2ccc(C(=O)N3CCC4(CCN(c5ccncc5)CC4)C3)cc21)c1c(F)cccc1C(F)(F)F` (stereo not drawn) [IND_CC-378, 2-Fluoro-N-[6-(8-pyridin-4-yl-2,8-diazaspiro[4.5]decane-2-carbonyl)-2,3-dihydro-1H-inden-1-yl]-6-(trifluoromethyl)-benzamide], the inhibition (usually the change of the read-out against control, counted positive when it falls) at 10 µM was determined as 104%.
In the case of `O=C(NC1CCc2ccc(C(=O)N3CCC4(CC3)CCN(c3ccncc3)CC4)cc21)c1ccc(F)cc1C(F)(F)F` (stereo not drawn) [IND_CC-379, 4-Fluoro-N-[6-(9-pyridin-4-yl-3,9-diazaspiro[5.5]undecane-3-carbonyl)-2,3-dihydro-1H-inden-1-yl]-2-(trifluoromethyl)-benzamide] it was 103%; in that of `CN(C(=O)c1ccc(F)cc1C(F)(F)F)C1CCc2ccc(C(=O)N3CCC4(CC3)CCN(c3ccncc3)CC4)cc21` (stereo not drawn) [IND_CC-380, 4-Fluoro-N-methyl-N-[6-(9-pyridin-4-yl-3,9-diazaspiro[5.5]undecane-3-carbonyl)-2,3-dihydro-1H-inden-1-yl]-2-(trifluoromethyl)-benzamide], 103%.
As to `O=C(NC1CCc2ccc(C(=O)N3CCC4(CC3)CCN(c3ccncc3)C4)cc21)c1ccc(F)cc1C(F)(F)F` (stereo not drawn) [IND_CC-381, 4-Fluoro-N-[6-(2-pyridin-4-yl-2,8-diazaspiro[4.5]decane-8-carbonyl)-2,3-dihydro-1H-inden-1-yl]-2-(trifluoromethyl)-benzamide], the inhibition at 10 µM stood at 104%.
Consider `O=C(NC1CCc2ccc(C(=O)N3CCC4(CCN(c5ccncc5)CC4)C3)cc21)c1ccc(F)cc1C(F)(F)F` (stereo not drawn) [IND_CC-382, 4-Fluoro-N-[6-(8-pyridin-4-yl-2,8-diazaspiro[4.5]decane-2-carbonyl)-2,3-dihydro-1H-inden-1-yl]-2-(trifluoromethyl)-benzamide], for which the inhibition at 10 µM was 103%.
Regarding `O=C(NC1CCc2ccc(C(=O)N3CCC4(CC3)CCN(c3ccncc3)CC4)cc21)c1c(F)cccc1F` (stereo not drawn) [IND_CC-383, 2,6-Difluoro-N-[6-(9-pyridin-4-yl-3,9-diazaspiro[5.5]undecane-3-carbonyl)-2,3-dihydro-1H-inden-1-yl]-benzamide], the inhibition at 10 µM was found to be 102%.
In the case of `CN(C(=O)c1c(F)cccc1F)C1CCc2ccc(C(=O)N3CCC4(CC3)CCN(c3ccncc3)CC4)cc21` (stereo not drawn) [IND_CC-384, 2,6-Difluoro-N-methyl-N-[6-(9-pyridin-4-yl-3,9-diazaspiro[5.5]undecane-3-carbonyl)-2,3-dihydro-1H-inden-1-yl]-benzamide] it was 104%.
Turning to `O=C(NC1CCc2ccc(C(=O)N3CCC4(CC3)CCN(c3ccncc3)C4)cc21)c1c(F)cccc1F` (stereo not drawn) [IND_CC-385, 2,6-Difluoro-N-[6-(2-pyridin-4-yl-2,8-diazaspiro[4.5]decane-8-carbonyl)-2,3-dihydro-1H-inden-1-yl]-benzamide], the inhibition at 10 µM amounted to 104%.
Take `O=C(NC1CCc2ccc(C(=O)N3CCC4(CCN(c5ccncc5)CC4)C3)cc21)c1c(F)cccc1F` (stereo not drawn) [IND_CC-386, 2,6-Difluoro-N-[6-(8-pyridin-4-yl-2,8-diazaspiro[4.5]decane-2-carbonyl)-2,3-dihydro-1H-inden-1-yl]-benzamide]: the inhibition at 10 µM was 104%.
In the case of `Cc1cccc(C(=O)N(C)C2CCc3ccc(C(=O)N4CCC5(CC4)CCN(c4ccncc4)CC5)cc32)c1C` (stereo not drawn) [IND_CC-387, N,2,3-Trimethyl-N-[6-(9-pyridin-4-yl-3,9-diazaspiro[5.5]undecane-3-carbonyl)-2,3-dihydro-1H-inden-1-yl]-benzamide] it was 104%; in that of `Cc1cccc(C(=O)NC2CCc3ccc(C(=O)N4CCC5(CC4)CCN(c4ccncc4)C5)cc32)c1C` (stereo not drawn) [IND_CC-388, 2,3-Dimethyl-N-[6-(2-pyridin-4-yl-2,8-diazaspiro[4.5]decane-8-carbonyl)-2,3-dihydro-1H-inden-1-yl]-benzamide], 101%.
With `Cc1cccc(C(=O)NC2CCc3ccc(C(=O)N4CCC5(CCN(c6ccncc6)CC5)C4)cc32)c1C` (stereo not drawn) [IND_CC-389, 2,3-Dimethyl-N-[6-(8-pyridin-4-yl-2,8-diazaspiro[4.5]decane-2-carbonyl)-2,3-dihydro-1H-inden-1-yl]-benzamide], the inhibition at 10 µM was 103%.
For the compound `CN(C1CCc2ccc(C(=O)N3CCC4(CC3)CCN(c3ccncc3)CC4)cc21)S(=O)(=O)Cc1cccc(C(F)(F)F)c1` (stereo not drawn) [IND_CC-390, N-Methyl-N-[6-(9-pyridin-4-yl-3,9-diazaspiro[5.5]undecane-3-carbonyl)-2,3-dihydro-1H-inden-1-yl]-1-[3-(trifluoromethyl)phenyl]-methanesulfonic acid amide], the inhibition at 10 µM amounted to 100%.
In the case of `O=C(NC1CCc2ccc(C(=O)N3CCC4(CC3)CCN(c3ccncc3)CC4)cc21)C1CCCC1` (stereo not drawn) [IND_CC-391, N-[6-(9-Pyridin-4-yl-3,9-diazaspiro[5.5]undecane-3-carbonyl)-2,3-dihydro-1H-inden-1-yl]-cyclopentanecarboxylic acid amide] it was 103%; in that of `CN(C(=O)C1CCCC1)C1CCc2ccc(C(=O)N3CCC4(CC3)CCN(c3ccncc3)CC4)cc21` (stereo not drawn) [IND_CC-392, N-Methyl-N-[6-(9-pyridin-4-yl-3,9-diazaspiro[5.5]undecane-3-carbonyl)-2,3-dihydro-1H-inden-1-yl]-cyclopentanecarboxylic acid amide], 102%; in that of `O=C(NC1CCc2ccc(C(=O)N3CCC4(CC3)CCN(c3ccncc3)C4)cc21)C1CCCC1` (stereo not drawn) [IND_CC-393, N-[6-(2-Pyridin-4-yl-2,8-diazaspiro[4.5]decane-8-carbonyl)-2,3-dihydro-1H-inden-1-yl]-cyclopentanecarboxylic acid amide], 103%.
In the case of `O=C(NC1CCc2ccc(C(=O)N3CCC4(CCN(c5ccncc5)CC4)C3)cc21)C1CCCC1` (stereo not drawn) [IND_CC-394, N-[6-(8-Pyridin-4-yl-2,8-diazaspiro[4.5]decane-2-carbonyl)-2,3-dihydro-1H-inden-1-yl]-cyclopentanecarboxylic acid amide] it was 103%; in that of `CN(C(=O)c1ccc(C(F)(F)F)cn1)C1CCc2ccc(C(=O)N3CCC4(CC3)CCN(c3ccncc3)CC4)cc21` (stereo not drawn) [IND_CC-395, N-Methyl-N-[6-(9-pyridin-4-yl-3,9-diazaspiro[5.5]undecane-3-carbonyl)-2,3-dihydro-1H-inden-1-yl]-5-(trifluoromethyl)-pyridine-2-carboxylic acid amide], 58%; in that of `O=C(NC1CCc2ccc(C(=O)N3CCC4(CCN(c5ccncc5)CC4)C3)cc21)c1ccc(C(F)(F)F)cn1` (stereo not drawn) [IND_CC-396, N-[6-(8-Pyridin-4-yl-2,8-diazaspiro[4.5]decane-2-carbonyl)-2,3-dihydro-1H-inden-1-yl]-5-(trifluoromethyl)-pyridine-2-carboxylic acid amide], 81%.
In the case of `O=C(NC1CCc2ccc(C(=O)N3CCC4(CC3)CCN(c3ccncc3)CC4)cc21)c1cnccn1` (stereo not drawn) [IND_CC-397, N-[6-(9-Pyridin-4-yl-3,9-diazaspiro[5.5]undecane-3-carbonyl)-2,3-dihydro-1H-inden-1-yl]-pyrazine-2-carboxylic acid amide] it was 68%; in that of `O=C(NC1CCc2ccc(C(=O)N3CCC4(CCN(c5ccncc5)CC4)C3)cc21)c1cnccn1` (stereo not drawn) [IND_CC-398, N-[6-(8-Pyridin-4-yl-2,8-diazaspiro[4.5]decane-2-carbonyl)-2,3-dihydro-1H-inden-1-yl]-pyrazine-2-carboxylic acid amide], 88%; in that of `O=C(NC1CCc2ccc(C(=O)N3CCC4(CC3)CCN(c3ccncc3)CC4)cc21)c1ccccc1F` (stereo not drawn) [IND_CC-399, 2-Fluoro-N-[6-(9-pyridin-4-yl-3,9-diazaspiro[5.5]undecane-3-carbonyl)-2,3-dihydro-1H-inden-1-yl]-benzamide], 101%.
Turning to `CN(C(=O)c1ccccc1F)C1CCc2ccc(C(=O)N3CCC4(CC3)CCN(c3ccncc3)CC4)cc21` (stereo not drawn) [IND_CC-400, 2-Fluoro-N-methyl-N-[6-(9-pyridin-4-yl-3,9-diazaspiro[5.5]undecane-3-carbonyl)-2,3-dihydro-1H-inden-1-yl]-benzamide], the inhibition at 10 µM was determined as 103%.
In the case of `O=C(NC1CCc2ccc(C(=O)N3CCC4(CC3)CCN(c3ccncc3)C4)cc21)c1ccccc1F` (stereo not drawn) [IND_CC-401, 2-Fluoro-N-[6-(2-pyridin-4-yl-2,8-diazaspiro[4.5]decane-8-carbonyl)-2,3-dihydro-1H-inden-1-yl]-benzamide] it was 103%.
In the case of `O=C(NC1CCc2ccc(C(=O)N3CCC4(CCN(c5ccncc5)CC4)C3)cc21)c1ccccc1F` (stereo not drawn) [IND_CC-402, 2-Fluoro-N-[6-(8-pyridin-4-yl-2,8-diazaspiro[4.5]decane-2-carbonyl)-2,3-dihydro-1H-inden-1-yl]-benzamide] it was 102%; in that of `CN(C1CCc2ccc(C(=O)N3CCC4(CC3)CCN(c3ccncc3)CC4)cc21)S(=O)(=O)c1c(Cl)cc(C(F)(F)F)cc1Cl` (stereo not drawn) [IND_CC-403, 2,6-Dichloro-N-methyl-N-[6-(9-pyridin-4-yl-3,9-diazaspiro[5.5]undecane-3-carbonyl)-2,3-dihydro-1H-inden-1-yl]-4-(trifluoromethyl)-benzenesulfonic acid amide], 97%; in that of `O=C(c1ccc2c(c1)C(NS(=O)(=O)c1c(Cl)cc(C(F)(F)F)cc1Cl)CC2)N1CCC2(CCN(c3ccncc3)CC2)C1` (stereo not drawn) [IND_CC-404, 2,6-Dichloro-N-[6-(8-pyridin-4-yl-2,8-diazaspiro[4.5]decane-2-carbonyl)-2,3-dihydro-1H-inden-1-yl]-4-(trifluoromethyl)-benzenesulfonic acid amide], 92%.
